This note sets out measurements from PubChem BioAssay AID449759 (The Scripps Research Institute Molecular Screening Center, 2010).

Activity calls are given as the source filed them. The rule behind the calls is not given here.

For the assay, the system named is NIH 3T3 cells, IRF-1 mRNA qPCR, IFNg-stimulated. Put plainly: enhancement of STAT1 target gene IRF-1 transcripts – SYBR qPCR, NIH 3T3 cells, powder samples, counter-screen for STAT1 activator project, late-stage follow-up (AID 449759). As to conditions: at 10 µM; stronger effect = higher value. On the technique in general: In qPCR the cycle at which signal appears reflects the starting amount.
Consider `CCN(CC)c1ccc2cc(C(=O)Nc3ccccn3)c(=O)oc2c1`, for which the fold change is 0.85 (inactive). Then `COc1ccc2[nH]c3c(c2c1)CCn1c-3nc2ccccc2c1=O`, with 0.89 (inactive); and `COc1ccc(-c2cc(C)nc3c(-c4ccccc4)cnn23)cc1`, with 0.81 (inactive); and `N#C/C(=C\c1ccc(N2CCOCC2)o1)c1nc2ccccc2[nH]1`, with 0.5 (inactive). Then `Cc1ccc(C(=O)Nc2nc3ccccc3s2)s1`, with 0.93 (inactive). Then `O=C(/C=C/Nc1ccccc1F)c1ccc(Br)cc1`, with 0.77 (inactive); and `COc1ccc(-c2csc(N3C(=O)CNC3=S)n2)cc1`, with 0.34 (inactive).

For `CCOC(=O)/C(C#N)=C/c1cc(C)n(-c2ccccc2)c1C`, the fold change is 0.7 (inactive).
